Measured values as given in ChEMBL document CHEMBL1201862, “PubChem BioAssay data set” (2004).
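The compound was tested at five concentrations on cells cultured in 96-well plates, with a 48-hour exposure period. The concentration for 50% growth inhibition is given as GI50.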 Active and inactive are the calls of the source. Rule as the data show it: active = GI50 up to about 1.1 µM and inactive = higher.

Experiments:
Assay in all cases: growth of human tumour cells (NCI), 48 h
SNB-75 = test system: SNB-75
EKVX = test system: EKVX
NCI/ADR-RES = test system: NCI/ADR-RES
SF-295 = test system: SF-295
HOP-92 = test system: HOP-92
MDA-MB-231 = test system: MDA-MB-231
OVCAR-3 = test system: OVCAR-3
IGROV-1 = test system: IGROV-1
U-251 = test system: U-251
MDA-MB-435 = test system: MDA-MB-435
BT-549 = test system: BT-549
M14 = test system: M14
HT-29 = test system: HT-29
A498 = test system: A498
SF-268 = test system: SF-268
ACHN = test system: ACHN
UACC-62 = test system: UACC-62
Malme-3M = test system: Malme-3M
COLO 205 = test system: COLO 205
HL-60 = test system: HL-60

Measured: GI50

CC(=N/NC(=S)N1CCCCC1)/C(=N\NC(=S)N1CCCCC1)c1ccccc1
inactive: SNB-75 1.91 µM | EKVX 1.89 µM | NCI/ADR-RES 2.65 µM | SF-295 1.87 µM | HOP-92 1.9 µM | MDA-MB-231 2.7 µM | OVCAR-3 1.65 µM | IGROV-1 1.72 µM | U-251 1.68 µM | MDA-MB-435 2.08 µM | BT-549 1.91 µM | M14 1.99 µM | HT-29 2.1 µM | A498 1.3 µM | SF-268 1.79 µM | ACHN 1.6 µM | UACC-62 1.77 µM | Malme-3M 2.13 µM | COLO 205 2.22 µM

O=C(O[C@@H](/C=C/c1ccccc1)P1(=O)N(Cc2ccccc2)[C@@H]2CCCC[C@H]2N1Cc1ccccc1)c1ccccc1
inactive: HL-60 2.94 µM | EKVX 3.98 µM | NCI/ADR-RES 3.66 µM | SF-295 3.55 µM | HOP-92 1.71 µM | MDA-MB-231 2.96 µM | OVCAR-3 5.07 µM | IGROV-1 2.79 µM | U-251 3.21 µM | MDA-MB-435 3.12 µM | BT-549 4.91 µM | M14 3.66 µM | HT-29 3.44 µM | A498 5.62 µM | SF-268 5.06 µM | ACHN 3.95 µM | UACC-62 3.8 µM | Malme-3M 3.6 µM | COLO 205 2 µM

O=C1Nc2ccccc2C1S(=O)(=O)c1ccccc1 (stereo not drawn)
inactive: SNB-75 > 100 µM | EKVX > 100 µM | NCI/ADR-RES > 100 µM | SF-295 > 100 µM | HOP-92 > 100 µM | MDA-MB-231 > 100 µM | OVCAR-3 > 100 µM | IGROV-1 > 100 µM | U-251 > 100 µM | MDA-MB-435 > 100 µM | BT-549 > 100 µM | M14 > 100 µM | HT-29 > 100 µM | A498 > 100 µM | SF-268 > 100 µM | ACHN > 100 µM | UACC-62 > 100 µM | Malme-3M > 100 µM | COLO 205 > 100 µM

COc1ccc(/C=C2\NC(=S)N(/C=C3\C(=O)Oc4ccccc4C3=O)C2=O)cc1OC
inactive: HL-60 22.4 µM | SNB-75 32.4 µM | EKVX 54.5 µM | NCI/ADR-RES > 100 µM | SF-295 > 100 µM | HOP-92 73.6 µM | MDA-MB-231 > 100 µM | OVCAR-3 87.3 µM | IGROV-1 78.3 µM | U-251 > 100 µM | MDA-MB-435 > 100 µM | BT-549 > 100 µM | M14 > 100 µM | HT-29 > 100 µM | A498 54 µM | SF-268 > 100 µM | ACHN 91 µM | UACC-62 > 100 µM | COLO 205 > 100 µM

Nc1nc(-c2ccc3ccccc3c2)cc(-c2cc(-c3ccc4ccccc4c3)nc(N)n2)n1
inactive: HL-60 > 100 µM | EKVX 75.3 µM | NCI/ADR-RES > 100 µM | SF-295 > 100 µM | HOP-92 > 100 µM | MDA-MB-231 > 100 µM | OVCAR-3 > 100 µM | IGROV-1 > 100 µM | U-251 > 100 µM | MDA-MB-435 > 100 µM | BT-549 > 100 µM | M14 > 100 µM | HT-29 > 100 µM | A498 > 100 µM | SF-268 > 100 µM | ACHN > 100 µM | UACC-62 > 100 µM | Malme-3M > 100 µM | COLO 205 > 100 µM

CCSC1=N/C(=C\c2ccco2)C(Cl)=N1
inactive: HL-60 > 100 µM | SNB-75 > 100 µM | EKVX > 100 µM | NCI/ADR-RES > 100 µM | SF-295 > 100 µM | HOP-92 > 100 µM | MDA-MB-231 > 100 µM | OVCAR-3 > 100 µM | IGROV-1 > 100 µM | U-251 > 100 µM | MDA-MB-435 > 100 µM | BT-549 > 100 µM | M14 > 100 µM | HT-29 > 100 µM | A498 > 100 µM | SF-268 > 100 µM | ACHN > 100 µM | UACC-62 > 100 µM | COLO 205 > 100 µM

COc1cc2c(cc1OCc1ccccc1)NC(=O)[C@@H]1CCCN1C2=O
inactive: SNB-75 > 100 µM | EKVX > 100 µM | NCI/ADR-RES > 100 µM | SF-295 > 100 µM | HOP-92 > 100 µM | MDA-MB-231 > 100 µM | OVCAR-3 > 100 µM | IGROV-1 58.9 µM | U-251 > 100 µM | MDA-MB-435 > 100 µM | BT-549 > 100 µM | M14 > 100 µM | HT-29 > 100 µM | A498 > 100 µM | SF-268 > 100 µM | ACHN > 100 µM | UACC-62 > 100 µM | Malme-3M > 100 µM | COLO 205 > 100 µM

CCOc1cc(C2SCC(=O)N2c2ccc3c(c2)Oc2c(Cl)c4c(c(Cl)c2=N3)Oc2cc(N3C(=O)CSC3c3ccc(O)c(OCC)c3)ccc2N=4)ccc1O (stereo not drawn)
inactive: HL-60 1.68 µM | SNB-75 21.4 µM | EKVX 37.2 µM | NCI/ADR-RES 39 µM | SF-295 38.9 µM | HOP-92 24.5 µM | MDA-MB-231 34.1 µM | OVCAR-3 26.3 µM | IGROV-1 41.9 µM | U-251 21 µM | MDA-MB-435 35.1 µM | BT-549 21.7 µM | M14 27.2 µM | HT-29 39.8 µM | A498 58.5 µM | SF-268 21.4 µM | ACHN 26.6 µM

CCOC(=O)c1cn2c(n1)sc1cc(Cl)cc(Cl)c12
inactive: SNB-75 > 100 µM | EKVX > 100 µM | NCI/ADR-RES > 100 µM | SF-295 > 100 µM | HOP-92 > 100 µM | MDA-MB-231 > 100 µM | OVCAR-3 > 100 µM | IGROV-1 > 100 µM | U-251 > 100 µM | MDA-MB-435 > 100 µM | BT-549 > 100 µM | M14 > 100 µM | HT-29 > 100 µM | A498 > 100 µM | SF-268 > 100 µM | ACHN > 100 µM | UACC-62 > 100 µM | Malme-3M > 100 µM | COLO 205 > 100 µM

COc1ccc(C2CC(c3c(O)ccc4ccccc34)=NN2c2ccc([N+](=O)[O-])cc2[N+](=O)[O-])cc1OC (stereo not drawn)
inactive: SNB-75 20.7 µM | EKVX 14 µM | NCI/ADR-RES 3.66 µM | SF-295 12.2 µM | HOP-92 19.4 µM | MDA-MB-231 20.9 µM | OVCAR-3 12.1 µM | IGROV-1 13 µM | U-251 17.6 µM | MDA-MB-435 24 µM | BT-549 30 µM | M14 32.7 µM | HT-29 10.6 µM | A498 7.18 µM | SF-268 25.4 µM | ACHN 18.5 µM | UACC-62 15.3 µM | Malme-3M 17.4 µM | COLO 205 22.3 µM
